Measured values published in patent publication US20160136286A1, “DRUG DELIVERY COMPOSITION” (The Queen's University of Belfast, priority 2008, published 2016).

Experiments:
[1] = solution in acetonitrile exposed to alternating periods of light and dark (365 nm), progress of drug liberation monitored; type: physicochemical; conditions: six alternating periods (FIG. 2)
Excerpt: A solution of 2 in acetonitrile was then exposed to alternating periods of light and dark using the same conditions for light conditions as previously. […] The dose of liberated drug thus correlates with the duration of exposure to light. In this example, six periods of dosing and nondosing are alternated; this can be extended to any discrete dose required, in principle to the level of control provided from the light source, which includes molecule-scale control from low bursts of light deliverable from a laser source.

[2] = irradiation of a solution of the conjugate with 365 nm UV-A radiation, followed by UV-visible spectra; type: physicochemical; conditions: solution irradiated with 365 nm UV-A; judged from isosbestic points at 231 and 262 nm (FIG. 1)
Excerpt: The behaviour of 2-4 is characterised by irradiating a solution using 365 nm UV-A radiation. As the photochemical reaction proceeds, the UV-visible spectrum of the reaction mixture changes (FIG. 1), reflecting the formation of 1 and drug and the consumption of conjugate. […] The identity of reaction products was verified by chromatographic separation, followed by spectroscopic analysis to be solely the corresponding drug and 1. The reaction proceeded in an analogous fashion to related nondrug examples 12 and all three conjugates 2-4 behaved similarly.

| SMILES | drug liberation reaction under light conditions ([1]; 365 nm light periods) | liberation of drug in dark conditions ([1]; dark periods) | side products of the photochemical reaction [2] |
| --- | --- | --- | --- |
| COc1cc(OC)cc(C(OC(=O)c2ccccc2OC(C)=O)C(=O)c2ccccc2)c1 (stereo not drawn) [Compound 2] | proceeds | stopped completely | – |
| COc1cc(OC)cc(C(OC(=O)C(C)c2ccc(CC(C)C)cc2)C(=O)c2ccccc2)c1 (stereo not drawn) [Compound 3] | – | – | no side products |
